In brackets after ≈: the same amount, converted by molar mass. Read-outs that look alike come from different tables or passages of the source.
Key:
[1] = system: 11 Linezolid-resistant CoNS; test: MIC summary on strain panel (Table 5); format: cell-based, Staphylococcus epidermidis, Staphylococcus hominis; conditions: for MIC50 / MIC90: 11 Linezolid-resistant CoNS
From the text: (§1) The in vitro antibacterial activity of the new agents was studied by determining their minimum inhibitory concentrations (MICs) by means of the broth microdilution method according to the Clinical and Laboratory Standards Institute (CLSI) guidelines.[16] Briefly, serial 2-fold dilutions of each compound were made using the Cation adjusted Mueller-Hinton broth (CAMHB) in microtitre plates with 96 wells. Dimethyl sulfoxide (DMSO) was used as solvent for all the synthesized compounds. An equal volume of the bacterial inoculum (1×10^6 CFU/mL) was added to each well on the microtitre plate containing 0.05 mL of the serial antibiotic dilutions. The microtitre plate was then incubated at 37° C. for 18-24 h after which each well was analysed for the presence of bacterial growth. The MIC was defined as the lowest concentration of antimicrobial agent able to cause inhibition of bacterial growth as shown by the lack of turbidity of the culture medium. […] Final DMSO concentrations were also taken into account in all the biological assays.

[2] = system: 45 Linezolid-susceptible MRSA; test: MIC summary on strain panel (Table 5); format: cell-based, Staphylococcus aureus
From the text: In particular, eleven linezolid-resistant coagulase-negative staphylococci (CoNS) (ten S. epidermidis and one S. hominis) were investigated. The eleven linezolid-resistant strains were isolated in several hospital settings between 2010 and 2011 from positive blood cultures. For the […], recently isolated from patients with cystic fibrosis, showing different profiles of multi-resistance to different classes of antimicrobials, was used (Table 4 and 5).
as §1

[3] = system: Staphylococcus aureus ATCC 29213; test: MIC by broth microdilution (CLSI); format: cell-based
From the text: (§2) Several well characterized for their antibiotic-susceptibility phenotype Staphylococcus aureus isolates were used for the determination of the in vitro antibacterial activity of the studied compounds. In particular, S. aureus ATCC 29213 reference standard strain and S. aureus M923 (collection strain) were used as MSSA strains. Among MRSA, S. aureus MU50 (ATCC 700699) reference standard strain and two collection strains (433 and F511) were used for susceptibility assays.
as §1
(§3) The antimicrobial activities, summarized in Table 2, were determined by the “gold standard” method of broth microdilution, as recommended by the Clinical Laboratory Standards Institute (CLSI) (See the Experimental Section). […] In detail, the bacterial strains were tested: Staphylococcus aureus ATCC 29213, a clinical strain of methicillin-susceptible S. aureus (M923), S. aureus MU50 (methicillin-resistant—MRSA), and two methicillin-resistant clinical strains, 433 and F511.
(§4) The antimicrobial activities, summarized in Table 3, were determined by the “gold standard” method of broth microdilution, as recommended by the Clinical Laboratory Standards Institute (CLSI) (See the Experimental Section). The minimum inhibitory concentration (MIC) values were expressed in μg/mL. […] In detail, the tested bacterial strains were: Staphylococcus aureus ATCC 29213, a clinical strain of methicillin-susceptible S. aureus (M923), S. aureus MU50 (methicillin-resistant—MRSA) strain, and two methicillin-resistant clinical strains, 433 and F511.

[4] = system: Linezolid-resistant S. hominis Strain 11; test: MIC by broth microdilution (Table 5); format: cell-based, Staphylococcus hominis; conditions: S. hominis Strain 11, linezolid-resistant
From the text: as §1

ATCC E. faecalis 29212 = test: MIC by broth microdilution (Table 5); format: cell-based, Enterococcus faecalis
Protocol: Dimethyl sulfoxide (DMSO) was used as solvent for all the synthesized compounds. An equal volume of the bacterial inoculum (1×10^6 CFU/mL) was added to each well on the microtitre plate containing 0.05 mL of the serial antibiotic dilutions. The microtitre plate was then incubated at 37° C. for 18-24 h after which each well was analysed for the presence of bacterial growth. The MIC was defined as the lowest concentration of antimicrobial agent able to cause inhibition of bacterial growth as shown by the lack of turbidity of the culture medium. […] Final DMSO concentrations were also taken into account in all the biological assays.

[5] = system: Linezolid-resistant S. epidermidis Strains 1-10; test: MIC by broth microdilution (Table 5); format: cell-based, Staphylococcus epidermidis
From the text: as §1

[6] = system: mitochondrial protein synthesis (OXPHOS complexes) in HepG2 cells; test: Oxidative phosphorylation (OXPHOS) assay
From the text: This assay (Nadaciva S. et al., 2010) is used to monitor the level of mitochondrial protein synthesis of some key proteins in the process of oxidative phosphorylation of eukaryotic cells, comparing it with the level of synthesis of mitochondrial proteins encoded by nuclear DNA. This study allows us to analyze the effects of A4bS on the proteins encoded by mitochondrial DNA (mtDNA).
The data represent the mean±SEM of three separate experiments performed in triplicate. Statistical significance is obtained by the Student's test compared to the […].

[7] = system: 6 ATCC (4MSSA, 2 MRSA)plus45 MRSA all LZD sensitive; test: MIC on strain panel (Table 4); format: cell-based, Staphylococcus aureus; conditions: 6 ATCC plus 45 MRSA
From the text: as §1

[8] = system: 12 MRSE all LZD sensitive; test: MIC on strain panel (Table 4); format: cell-based, Staphylococcus epidermidis
From the text: as §1

[9] = system: S. aureus MU50 (ATCC 700699), methicillin-resistant (MRSA); test: MIC by broth microdilution (CLSI); format: cell-based, Staphylococcus aureus
From the text: as §2, §1, §3, §4

[10] = system: methicillin-susceptible S. aureus (M923); test: MIC by broth microdilution (CLSI); format: cell-based, Staphylococcus aureus; conditions: Staphylococcus aureus
From the text: as §2, §1, §3, §4

[11] = system: MRSA clinical strain F511; test: MIC by broth microdilution (CLSI); format: cell-based, Staphylococcus aureus; conditions: Staphylococcus aureus
From the text: as §2, §1, §3, §4

MRSA clinical strain 433 = test: MIC by broth microdilution (CLSI); format: cell-based, Staphylococcus aureus; conditions: MRSA 433
From the text: as §2, §1, §3, §4

[12] = ATCC S. aureus 29213, resolved enantiomers, Table 5, read-out: MIC
[13] = S. epidermidis Strain 1, linezolid-resistant
[14] = S. epidermidis Strain 2, linezolid-resistant
[15] = S. epidermidis Strain 3, linezolid-resistant
[16] = S. epidermidis Strain 4, linezolid-resistant
[17] = S. epidermidis Strain 5, linezolid-resistant
[18] = S. epidermidis Strain 6, linezolid-resistant
[19] = S. epidermidis Strain 7, linezolid-resistant
[20] = S. epidermidis Strain 8, linezolid-resistant
[21] = S. epidermidis Strain 9, linezolid-resistant
[22] = S. epidermidis Strain 10, linezolid-resistant
[23] = Staphylococcus aureus, racemic mixture, Table 2, read-out: MIC

SMILES	MIC50 [1] [µg/mL]	MIC90 [1] [µg/mL]	MIC50 [2] [µg/mL]	MIC [3, 12] [µg/mL]	MIC [4] [µg/mL]	MIC (ATCC E. faecalis 29212) [µg/mL]	MIC [5, 13] [µg/mL]	MIC [5, 14] [µg/mL]	MIC [5, 15] [µg/mL]	MIC [5, 16] [µg/mL]	MIC [5, 17] [µg/mL]	MIC [5, 18] [µg/mL]	MIC [5, 19] [µg/mL]	MIC [5, 20] [µg/mL]	MIC [5, 21] [µg/mL]	MIC [5, 22] [µg/mL]	also measured
CC(=S)NC[C@H]1CN(c2ccc(-c3nc(C)no3)cc2)C(=O)O1 [Compound A4aS]	8 (≈ 24.1 µM)	32 (≈ 96.3 µM)	2 (≈ 6.02 µM)	8 (≈ 24.1 µM)	8 (≈ 24.1 µM)	4 (≈ 12 µM)	8 (≈ 24.1 µM)	32 (≈ 96.3 µM)	4 (≈ 12 µM)	32 (≈ 96.3 µM)	4 (≈ 12 µM)	4 (≈ 12 µM)	32 (≈ 96.3 µM)	32 (≈ 96.3 µM)	1 (≈ 3.01 µM)	8 (≈ 24.1 µM)	–
CC(=S)NC[C@@H]1CN(c2ccc(-c3nc(C)no3)c(F)c2)C(=O)O1 [Compound A4bR]	128 (≈ 365 µM)	128 (≈ 365 µM)	128 (≈ 365 µM)	64 (≈ 183 µM)	128 (≈ 365 µM)	32 (≈ 91.3 µM)	128 (≈ 365 µM)	> 128	> 128	128 (≈ 365 µM)	128 (≈ 365 µM)	64 (≈ 183 µM)	> 128	128 (≈ 365 µM)	> 128	128 (≈ 365 µM)	–
CC(=S)NC[C@H]1CN(c2ccc(-c3nc(C)no3)c(F)c2)C(=O)O1 [Compound A4bS]	4 (≈ 11.4 µM)	8 (≈ 22.8 µM)	0.5 (≈ 1.43 µM)	4 (≈ 11.4 µM)	4 (≈ 11.4 µM)	2 (≈ 5.71 µM)	8 (≈ 22.8 µM)	8 (≈ 22.8 µM)	4 (≈ 11.4 µM)	4 (≈ 11.4 µM)	2 (≈ 5.71 µM)	4 (≈ 11.4 µM)	8 (≈ 22.8 µM)	2 (≈ 5.71 µM)	1 (≈ 2.85 µM)	4 (≈ 11.4 µM)	effect on linezolid resistance (in words) ([1]; linezolid-resistant Staphylococcus spp. strains): completely reversed resistance to linezolid into susceptibility; effect on proteins synthesized by mtDNA (in words) [6]: reduction of the synthesis of proteins of complex I and IV
CC(=O)NC[C@H]1CN(c2ccc(N3CCOCC3)c(F)c2)C(=O)O1 [Linezolid, reference compound]	–	–	–	–	–	–	–	–	–	–	–	–	–	–	–	–	MIC ([3]; ATCC 29213, racemic form, Table 3): ≤0.4 µg/mL; MIC ([3]; Staphylococcus aureus, ATCC29213, ATCC 29213, racemic mixture, Table 2, read-out: MIC): ≤ 0.4 µg/mL; MIC-range ([7]; tested range ≤0.06 - >128): 0.25 to 16 µg/mL; MIC50 ([7]; Staphylococcus aureus, read-out: MIC50): 2 µg/mL; MIC90 ([7]; Staphylococcus aureus, read-out: MIC90): 4 µg/mL; MIC range [8]: 32 to 64 µg/mL; MIC50 ([8]; Staphylococcus epidermidis, read-out: MIC50): 32 µg/mL (≈ 94.9 µM); MIC90 ([8]; Staphylococcus epidermidis, read-out: MIC90): 64 µg/mL (≈ 190 µM); effect on proteins synthesized by mtDNA (in words) ([6]; HepG2, linezolid 100 μg/mL, A4bS 10-100 μg/mL, vs non-treated cells, FIG. 6): significant decrease; MIC [9, 23]: 0.8 µg/mL (≈ 2.37 µM); MIC ([9]; racemic form, Table 3): 0.8 µg/mL (≈ 2.37 µM); MIC ([10]; MSSA, racemic mixture, Table 2): 3.13 µg/mL (≈ 9.28 µM); MIC ([10]; MSSA M923, racemic form, Table 3, read-out: MIC): 3.12 µg/mL (≈ 9.26 µM); MIC ([11]; MRSA, racemic mixture, Table 2): 3.13 µg/mL (≈ 9.28 µM); MIC ([11]; racemic form, Table 3, read-out: MIC): 3.12 µg/mL (≈ 9.26 µM); MIC (MRSA clinical strain 433; racemic form, Table 3): 1.6 µg/mL (≈ 4.74 µM); MIC (MRSA clinical strain 433; [23]): 1.6 µg/mL (≈ 4.74 µM)

— patent US9920039B2, “1,2,4-Oxadiazol compounds active against gram-positive pathogens” (UNIVERSITÀ DEGLI STUDI DI MILANO—BICOCCA, priority 2013, dated 2018)
